# In patent publication US12383526B2, “Optimized sigma-1 agonist method of responder selection and treatment” (ANAVEX LIFE SCIENCES CORP., priority 2018, dated 2025):
# Tested on: subjects with mild-to-moderate AD
# Assay: ADCS-ADL (Activities of Daily Living) change from baseline, 57-week Phase 2a study and 208-week extension study
# Assay type: in vivo, human
# Design: key to unadjusted change in ADCS-ADL score, Mean ± Std. Dev: change from baseline on ADCS-ADL scale 0–78, higher = greater function
# Source text: The present study integrates and analyzes data and samples from two consecutive clinical trials: 57-week study and 208-week study. 57-week study was a multicenter Phase 2a clinical trial of the drug ANAVEX2-73 that recruited a sample of 32 subjects with mild-to-moderate AD. It consisted of two parts: Part A was a simple randomized, open-label, two-period, cross-over, adaptive trial lasting up to 5 weeks. Each period involved one specific administration route and two possible dose levels: in one period the oral dose (30 mg or 50 mg) was administrated and in the other period an intravenous (IV) form (3 mg or 5 mg) was administered, making a total of 8 possible dose administration schemes in Part A (details available in FIG. 2A). The two periods were separated by a wash-out period of 12 days where no dose was given.
# Part B, following immediately after Part A, was an open-label extension of the oral daily dose for an additional 52 weeks. The primary endpoint of 57-week study was to establish the safety and tolerability of the drug. Secondary endpoints aimed at establishing the relationship between dosing regimen and pharmacodynamics-exploratory efficacy outcomes of cognition and function. Cognition was assessed by the Mini Mental State Examination (MMSE), while functional abilities by the Alzheimer's Disease Co-operative Study—Activities of Daily Living Inventory (ADCS-ADL). Additional cognitive measures included the Cogstate Brief Battery (CBB), and functional measures of Electroencephalography and Event-Related Potential (EEG and ERP). Part B continued an adaptive oral administration scheme. Table 12 summarizes mean oral dose administration during the 57-week study study.
# Due to favorable safety and tolerability profile of the 57-week study (Table 2), and in response to requests from patients and caregivers, a 208-week open-label extension study (208-week study) was carried out immediately after completion of 57-week study Part B. 208-week study enrolled the 24 subjects who completed Part B and applied similarly an adaptive daily oral administration scheme. ANAVEX2-73-003 involves continuous evaluation of safety and efficacy as measured by the MMSE and ADCS-ADL. At week 148 (interim time point for analyses), data on the subjects remaining in the study (n=21) was analyzed for efficacy outcomes. This report was drafted using data available at week 148, while ANAVEX2-73-003 is still ongoing.
# Exploratory clinical efficacy in this study was defined as change from baseline of each patient's cognitive (MMSE) and functional ability (ADCS-ADL) scores. The MMSE57 is a widely used, validated instrument in clinical AD research, including as a cognitive outcome measure in drug trials. The range of the scale is from 0 to 30, with a higher score indicating higher cognitive function. The ADCS-ADL58 is undertaken in a structured caregiver interview format and assesses performance in activities of daily living of patients with AD. The scale is from 0 to 78, with a higher score indicating greater function. The ADCS-ADL has shown to have good test-retest reliability 59. The MMSE and the ADCS-ADL were assessed during pre-specified clinical site visits across 14 different time points during the 57-week study (Weeks 0 and 5 in Part A; Weeks 17, 31, 41, 53, and 57 in Part B), and 208-week study (Weeks 70, 83, 96, 109, 122, 135, and 148) studies.
# Corresponding Delta scores were calculated using the difference between values at each visit and at baseline for each individual patient, with a focus on Week 57. In addition, to lower the impact of noise in MMSE and ADCS-ADL scores, a Slope was estimated using a linear regression across all available time points for each individual patient. The derived scores describe the progression of exploratory efficacy data from baseline at several specific time points (Deltas) and over a set period of time (Slope). […]
smiles,measurement,setting,value
"CN(C)CC1CCOC1(c1ccccc1)c1ccccc1.Cl (centres unmarked) [ANAVEX2-73, tetrahydro-N,N-dimethyl-2,2-diphenyl-3-furanmethanamine hydrochloride]",ADCS-ADL Mean Δ at 57 weeks,"Absence of COMT_L146fs variant & Baseline MMSE ≥20, N 11",−0.63 ± 5.33
same,ADCS-ADL Mean Δ at 57 weeks,"Absence of COMT_L146fs variant, N 16",−2.37 ± 6.96
same,ADCS-ADL Mean Δ at 57 weeks,"Absence of SIGMAR1_Q2P variant & Absence of COMT_L145fs variant & Baseline MMSE ≥20, N 10",−0.30 ± 5.50
same,ADCS-ADL Mean Δ at 57 weeks,"Absence of SIGMAR1_Q2P variant, N 16",−3.31 ± 7.64
same,ADCS-ADL Mean Δ at 57 weeks,"Absence of SIGNAR1_Q2P variant & Baseline MMSE ≥20, N 11",−1.27 ± 6.13
same,"unadjusted change in ADCS-ADL score, Mean ± Std. Dev","All Patients (N = 21), Week 0",0 ± 0
same,"unadjusted change in ADCS-ADL score, Mean ± Std. Dev","All Patients (N = 21), Week 5",−1.65 ± 6.71
same,"unadjusted change in ADCS-ADL score, Mean ± Std. Dev","All Patients (N = 21), Week 17",−1.33 ± 3.85
same,"unadjusted change in ADCS-ADL score, Mean ± Std. Dev","All Patients (N = 21), Week 31",−3.60 ± 8.09
same,"unadjusted change in ADCS-ADL score, Mean ± Std. Dev","All Patients (N = 21), Week 41",−3.95 ± 6.34
same,"unadjusted change in ADCS-ADL score, Mean ± Std. Dev","All Patients (N = 21), Week 53",−5.29 ± 7.47
same,"unadjusted change in ADCS-ADL score, Mean ± Std. Dev","All Patients (N = 21), Week 57",−5.24 ± 8.42
same,"unadjusted change in ADCS-ADL score, Mean ± Std. Dev","All Patients (N = 21), Week 70",−8.81 ± 10.90
same,"unadjusted change in ADCS-ADL score, Mean ± Std. Dev","All Patients (N = 21), Week 83",−9.38 ± 12.69
same,"unadjusted change in ADCS-ADL score, Mean ± Std. Dev","All Patients (N = 21), Week 96",−14.52 ± 15.61
same,"unadjusted change in ADCS-ADL score, Mean ± Std. Dev","All Patients (N = 21), Week 109",−14.25 ± 14.56
same,"unadjusted change in ADCS-ADL score, Mean ± Std. Dev","All Patients (N = 21), Week 122",−17.84 ± 18.89
same,"unadjusted change in ADCS-ADL score, Mean ± Std. Dev","All Patients (N = 21), Week 135",−20.29 ± 18.37
same,"unadjusted change in ADCS-ADL score, Mean ± Std. Dev","All Patients (N = 21), Week 148",−21.16 ± 17.73
same,ADCS-ADL Mean Δ at 57 weeks,"All, N 21",−5.19 ± 8.46
same,ADCS-ADL Mean Δ at 57 weeks,"Baseline MMSE ≥20, N 13",−2.00 ± 5.93
same,"unadjusted change in ADCS-ADL score, Mean ± Std. Dev","Group1 (n 2), Week 0",0.00 ± 0.00
same,"unadjusted change in ADCS-ADL score, Mean ± Std. Dev","Group1 (n 2), Week 5",6.50 ± 9.19
same,"unadjusted change in ADCS-ADL score, Mean ± Std. Dev","Group1 (n 2), Week 17",4.50 ± 0.71
same,"unadjusted change in ADCS-ADL score, Mean ± Std. Dev","Group1 (n 2), Week 31",6.50 ± 3.54
same,"unadjusted change in ADCS-ADL score, Mean ± Std. Dev","Group1 (n 2), Week 41",4.50 ± 0.71
same,"unadjusted change in ADCS-ADL score, Mean ± Std. Dev","Group1 (n 2), Week 53",5.00 ± 1.41
same,"unadjusted change in ADCS-ADL score, Mean ± Std. Dev","Group1 (n 2), Week 57",6.00 ± 2.83
same,"unadjusted change in ADCS-ADL score, Mean ± Std. Dev","Group1 (n 2), Week 70",6.00 ± 2.83
same,"unadjusted change in ADCS-ADL score, Mean ± Std. Dev","Group1 (n 2), Week 83",4.50 ± 2.12
same,"unadjusted change in ADCS-ADL score, Mean ± Std. Dev","Group1 (n 2), Week 96",5.50 ± 2.12
same,"unadjusted change in ADCS-ADL score, Mean ± Std. Dev","Group1 (n 2), Week 109",4.00 ± 0.00
same,"unadjusted change in ADCS-ADL score, Mean ± Std. Dev","Group1 (n 2), Week 122",6.00 ± 2.83
same,"unadjusted change in ADCS-ADL score, Mean ± Std. Dev","Group1 (n 2), Week 135",6.00 ± 2.83
same,"unadjusted change in ADCS-ADL score, Mean ± Std. Dev","Group1 (n 2), Week 148",7.00 ± 4.24
same,"unadjusted change in ADCS-ADL score, Mean ± Std. Dev","Group2 (n 6), Week 0",0.00 ± 0.00
same,"unadjusted change in ADCS-ADL score, Mean ± Std. Dev","Group2 (n 6), Week 5",0.83 ± 6.59
same,"unadjusted change in ADCS-ADL score, Mean ± Std. Dev","Group2 (n 6), Week 17",1.33 ± 2.80
same,"unadjusted change in ADCS-ADL score, Mean ± Std. Dev","Group2 (n 6), Week 31",0.33 ± 5.39
same,"unadjusted change in ADCS-ADL score, Mean ± Std. Dev","Group2 (n 6), Week 41",0.50 ± 4.09
same,"unadjusted change in ADCS-ADL score, Mean ± Std. Dev","Group2 (n 6), Week 53",0.50 ± 4.18
same,"unadjusted change in ADCS-ADL score, Mean ± Std. Dev","Group2 (n 6), Week 57",1.83 ± 3.66
same,"unadjusted change in ADCS-ADL score, Mean ± Std. Dev","Group2 (n 6), Week 70",0.33 ± 4.93
same,"unadjusted change in ADCS-ADL score, Mean ± Std. Dev","Group2 (n 6), Week 83",−0.67 ± 5.85
same,"unadjusted change in ADCS-ADL score, Mean ± Std. Dev","Group2 (n 6), Week 96",−2.50 ± 7.71
same,"unadjusted change in ADCS-ADL score, Mean ± Std. Dev","Group2 (n 6), Week 109",−3.83 ± 7.96
same,"unadjusted change in ADCS-ADL score, Mean ± Std. Dev","Group2 (n 6), Week 122",−3.00 ± 6.72
same,"unadjusted change in ADCS-ADL score, Mean ± Std. Dev","Group2 (n 6), Week 135",−4.17 ± 10.42
same,"unadjusted change in ADCS-ADL score, Mean ± Std. Dev","Group2 (n 6), Week 148",−8.17 ± 15.96
same,"unadjusted change in ADCS-ADL score, Mean ± Std. Dev","Group 3 (n 11), Week 0",0.00 ± 0.00
same,"unadjusted change in ADCS-ADL score, Mean ± Std. Dev","Group 3 (n 11), Week 5",−0.09 ± 6.32
same,"unadjusted change in ADCS-ADL score, Mean ± Std. Dev","Group 3 (n 11), Week 17",0.09 ± 3.45
same,"unadjusted change in ADCS-ADL score, Mean ± Std. Dev","Group 3 (n 11), Week 31",−1.82 ± 5.71
same,"unadjusted change in ADCS-ADL score, Mean ± Std. Dev","Group 3 (n 11), Week 41",−2.27 ± 6.40
same,"unadjusted change in ADCS-ADL score, Mean ± Std. Dev","Group 3 (n 11), Week 53",−1.73 ± 5.61
same,"unadjusted change in ADCS-ADL score, Mean ± Std. Dev","Group 3 (n 11), Week 57",−1.36 ± 6.09
